From US20220119354A1, “DIAMINO-SUBSTITUTED PYRIDINES AND PYRIMIDINES AS HERBICIDES” (FMC Corporation, priority 2019, published 2022)

Experiments:
Assay type in all cases: in vivo
[1] = test system: pigweed (Amaranthus retroflexus); assay: Test A postemergence, pigweed; conditions: 0 to 100 scale, 0 no effect, 100 complete control
Summary of the method: (§1)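 Visual injury scores (0 no effect to 100 complete control) were assigned about 10 d after treatment by comparison with untreated controls. Test chemicals, formulated in a surfactant-containing non-phytotoxic solvent, were applied to soil at planting or to plants at the one- to two-leaf stage.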

[2] = test system: blackgrass (Alopecurus myosuroides); assay: Test A postemergence, blackgrass; conditions: 0 to 100 scale, 0 no effect, 100 complete control
Summary of the method: as §1

[3] = test system: galium (catchweed bedstraw, Galium aparine); assay: Test A postemergence, galium; conditions: 0 to 100 scale, 0 no effect, 100 complete control
Summary of the method: as §1

[4] = test system: ryegrass, Italian (Lolium multiflorum); assay: Test A preemergence, Italian ryegrass; conditions: 0 to 100 scale, 0 is no effect, 100 is complete control
Summary of the method: as §1

[5] = test system: barnyardgrass (Echinochloa crus-galli); assay: Test B flooded paddy test, barnyardgrass; conditions: Flood, 250 g ai/ha, applied to paddy water, 2-leaf stage, visual evaluation after 13 to 15 d
Summary of the method: (§2)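 Each response is a visual 0–100 rating made against untreated controls, where 0 is no effect and 100 is complete control; a dash marks no result. Compound was dosed into 3 cm paddy water over 2-leaf plants, assessed after 13 to 15 d.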

[6] = test system: ducksalad (Heteranthera limosa); assay: Test B flooded paddy test, ducksalad; conditions: Flood, 250 g ai/ha, applied to paddy water, 2-leaf stage, visual evaluation after 13 to 15 d
Summary of the method: as §2

[7] = test system: kochia (Kochia scoparia); assay: Test A postemergence, kochia; conditions: 0 to 100 scale, 0 no effect, 100 complete control
Summary of the method: as §1

[8] = test system: barnyardgrass (Echinochloa crus-galli); assay: Test A preemergence, barnyardgrass; conditions: 0 to 100 scale, 0 is no effect, 100 is complete control
Summary of the method: as §1

[9] = test system: ryegrass, Italian (Lolium multiflorum); assay: Test A postemergence, Italian ryegrass; conditions: 0 to 100 scale, 0 no effect, 100 complete control
Summary of the method: as §1

[10] = test system: kochia (Kochia scoparia); assay: Test A preemergence, kochia; conditions: 0 to 100 scale, 0 is no effect, 100 is complete control
Summary of the method: as §1

[11] = test system: wheat (Triticum aestivum); assay: Test A postemergence, wheat; conditions: 0 to 100 scale, 0 no effect, 100 complete control
Summary of the method: as §1

[12] = test system: pigweed (Amaranthus retroflexus); assay: Test A preemergence, pigweed; conditions: 0 to 100 scale, 0 is no effect, 100 is complete control
Summary of the method: as §1

[13] = test system: ragweed (common ragweed, Ambrosia elatior); assay: Test A preemergence, ragweed; conditions: 0 to 100 scale, 0 is no effect, 100 is complete control
Summary of the method: as §1

[14] = test system: ragweed (common ragweed, Ambrosia elatior); assay: Test A postemergence, ragweed; conditions: 0 to 100 scale, 0 no effect, 100 complete control
Summary of the method: as §1

[15] = test system: rice (Oryza sativa); assay: Test B flooded paddy test, rice; conditions: Flood, 250 g ai/ha, applied to paddy water, 2-leaf stage, visual evaluation after 13 to 15 d
Summary of the method: as §2

[16] = test system: foxtail, giant (Setaria faberii); assay: Test A postemergence, giant foxtail; conditions: 0 to 100 scale, 0 no effect, 100 complete control
Summary of the method: as §1

[17] = test system: sedge, umbrella (small-flower umbrella sedge, Cyperus difformis); assay: Test B flooded paddy test, umbrella sedge; conditions: Flood, 250 g ai/ha, applied to paddy water, 2-leaf stage, visual evaluation after 13 to 15 d
Summary of the method: as §2

[18] = test system: corn (Zea mays); assay: Test A postemergence, corn; conditions: 0 to 100 scale, 0 no effect, 100 complete control
Summary of the method: as §1

[19] = test system: foxtail, giant (Setaria faberii); assay: Test A preemergence, giant foxtail; conditions: 0 to 100 scale, 0 is no effect, 100 is complete control
Summary of the method: as §1

[20] = test system: barnyardgrass (Echinochloa crus-galli); assay: Test A postemergence, barnyardgrass; conditions: 0 to 100 scale, 0 no effect, 100 complete control
Summary of the method: as §1

Structure (SMILES): CC[C@H](Nc1ncc(C(F)(F)F)c(N)n1)c1coc2ccccc12 [Compound 81]
- Plant response rating, Pigweed ([1]; 125 g ai/ha): 0
- Plant response rating, Pigweed ([1]; 500 g ai/ha): 80
- Plant response rating, Blackgrass ([2]; 125 g ai/ha): 0
- Plant response rating, Blackgrass ([2]; 500 g ai/ha): 0
- Plant response rating, Galium ([3]; 125 g ai/ha): 0
- Plant response rating, Galium ([3]; 500 g ai/ha): 30
- Ryegrass, Italian plant response rating ([4]; 125 g ai/ha): 0
- Ryegrass, Italian plant response rating ([4]; 500 g ai/ha): 60
- Plant response rating, Barnyardgrass (0 to 100 scale, 0 is no effect, 100 is complete control) [5]: 0
- Plant response rating, Ducksalad (0 to 100 scale, 0 is no effect, 100 is complete control) [6]: 0
- Plant response rating, Kochia ([7]; 125 g ai/ha): 20
- Plant response rating, Kochia ([7]; 500 g ai/ha): 40
- Barnyardgrass plant response rating ([8]; 125 g ai/ha): 0
- Barnyardgrass plant response rating ([8]; 500 g ai/ha): 0
- Plant response rating, Ryegrass, Italian ([9]; 125 g ai/ha): 0
- Plant response rating, Ryegrass, Italian ([9]; 500 g ai/ha): 0
- Kochia plant response rating ([10]; 125 g ai/ha): 0
- Kochia plant response rating ([10]; 500 g ai/ha): 20
- Plant response rating, Wheat ([11]; 125 g ai/ha): 0
- Plant response rating, Wheat ([11]; 500 g ai/ha): 0
- Pigweed plant response rating ([12]; 125 g ai/ha): 0
- Pigweed plant response rating ([12]; 500 g ai/ha): 10
- Ragweed plant response rating ([13]; 125 g ai/ha): 0
- Ragweed plant response rating ([13]; 500 g ai/ha): 70
- Plant response rating, Ragweed ([14]; 125 g ai/ha): 0
- Plant response rating, Ragweed ([14]; 500 g ai/ha): 20
- Plant response rating, Rice (0 to 100 scale, 0 is no effect, 100 is complete control) [15]: 0
- Plant response rating, Foxtail, Giant ([16]; 125 g ai/ha): 0
- Plant response rating, Foxtail, Giant ([16]; 500 g ai/ha): 10
- Plant response rating, Sedge, Umbrella (0 to 100 scale, 0 is no effect, 100 is complete control) [17]: 0
- Plant response rating, Corn ([18]; 125 g ai/ha): 0
- Plant response rating, Corn ([18]; 500 g ai/ha): 0
- Foxtail, Giant plant response rating ([19]; 125 g ai/ha): 0
- Foxtail, Giant plant response rating ([19]; 500 g ai/ha): 20
- Plant response rating, Barnyardgrass ([20]; 125 g ai/ha): 0
- Plant response rating, Barnyardgrass ([20]; 500 g ai/ha): 0

Structure (SMILES): Nc1nc(N[C@@H](c2cc3ccccc3s2)C2CC2)ncc1C(F)(F)F [Compound 84]
- Plant response rating, Pigweed ([1]; 125 g ai/ha): 100
- Plant response rating, Pigweed ([1]; 500 g ai/ha): 100
- Plant response rating, Blackgrass ([2]; 125 g ai/ha): 0
- Plant response rating, Blackgrass ([2]; 500 g ai/ha): 0
- Plant response rating, Galium ([3]; 125 g ai/ha): 60
- Plant response rating, Galium ([3]; 500 g ai/ha): 80
- Ryegrass, Italian plant response rating ([4]; 125 g ai/ha): 70
- Ryegrass, Italian plant response rating ([4]; 500 g ai/ha): 90
- Plant response rating, Barnyardgrass (0 to 100 scale, 0 is no effect, 100 is complete control) [5]: 85
- Plant response rating, Ducksalad (0 to 100 scale, 0 is no effect, 100 is complete control) [6]: 65
- Plant response rating, Kochia ([7]; 125 g ai/ha): 80
- Plant response rating, Kochia ([7]; 500 g ai/ha): 90
- Barnyardgrass plant response rating ([8]; 125 g ai/ha): 90
- Barnyardgrass plant response rating ([8]; 500 g ai/ha): 90
- Plant response rating, Ryegrass, Italian ([9]; 125 g ai/ha): 0
- Plant response rating, Ryegrass, Italian ([9]; 500 g ai/ha): 70
- Kochia plant response rating ([10]; 125 g ai/ha): 90
- Kochia plant response rating ([10]; 500 g ai/ha): 90
- Plant response rating, Wheat ([11]; 125 g ai/ha): 0
- Plant response rating, Wheat ([11]; 500 g ai/ha): 0
- Pigweed plant response rating ([12]; 125 g ai/ha): 100
- Pigweed plant response rating ([12]; 500 g ai/ha): 100
- Ragweed plant response rating ([13]; 125 g ai/ha): 100
- Ragweed plant response rating ([13]; 500 g ai/ha): 100
- Plant response rating, Ragweed ([14]; 125 g ai/ha): 40
- Plant response rating, Ragweed ([14]; 500 g ai/ha): 90
- Plant response rating, Rice (0 to 100 scale, 0 is no effect, 100 is complete control) [15]: 20
- Plant response rating, Foxtail, Giant ([16]; 125 g ai/ha): 50
- Plant response rating, Foxtail, Giant ([16]; 500 g ai/ha): 90
- Plant response rating, Sedge, Umbrella (0 to 100 scale, 0 is no effect, 100 is complete control) [17]: 90
- Plant response rating, Corn ([18]; 125 g ai/ha): 0
- Plant response rating, Corn ([18]; 500 g ai/ha): 0
- Foxtail, Giant plant response rating ([19]; 125 g ai/ha): 90
- Foxtail, Giant plant response rating ([19]; 500 g ai/ha): 100
- Plant response rating, Barnyardgrass ([20]; 125 g ai/ha): 70
- Plant response rating, Barnyardgrass ([20]; 500 g ai/ha): 100
